Source: US7745390B2, “Antimicrobial peptides” (priority 2005, dated 2010)
pIC50: −log10 of the molar value. Square brackets hold non-standard residues; d marks the D form. Peptide text beside a SMILES is read from it.

Key:
Salmonella = format: cell-based, S. typhimurium; conditions: pH 7.2
How it was run: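 Peptides and bacteria (~5×10^6 CFU/ml) incubated 3 hours at 37° C in 10 mM phosphate buffer pH 7.2 with 0.03% LB. LB then added, overnight growth, OD600 read. MIC = lowest concentration with no growth; IC50 = concentration giving 50% growth relative to medium.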

candida albicans SC5314 = assay: Percent survival of Candida albicans in phosphate buffer; format: cell-based; parameters: dose or concentration left out as unconfirmed; conditions: 37° C., 90 min. incubation
From the text: Germ tube formation is essential to Candida toxicity, so agents that prevent this (even in the absence of killing the organism) could have significant activity in vivo.

[1] = Degree of helicity by circular dichroism; format: physicochemical
Experimental: For designing analogues of the present sequences, as taught herein, the Table also presents data on the degree of helicity of the active peptides, as measured by circular dichroism. It should be noted that a number of the active peptides listed in the figure are not alpha helices at all. At least one peptide tested was considered to be a random coil, with no detectible secondary structure evident in the circular dichroism measurement.
The MIC values are for E. coli in 10 mM phosphate buffer. The peptides were derived by the inventors from granulysin helix 3. […] It contains an equal number of hydrophobic and positively charged amino acids, can adapt an αhelical structure, and is very amphipathic. In contrast, the remaining 3 peptides all retain activity in DMEM even in the presence of serum. These peptides contain more positive residues than hydrophobic residues. G12.21 contains 2 proline residues, G11.46 is based on a modification of the helix three sequence (RRVSRRFMRR) (SEQ ID NO: 91) with a 5 arginine extension at the NH2 terminus, and G14.15 includes loop 2/RRVSRRFMRR (SEQ ID NO: 91).

CSCC[C@H](NC(=O)[C@H](Cc1ccccc1)NC(=O)[C@@H](CCCNC(=N)N)NC(=O)[C@@H](CCCNC(=N)N)NC(=O)[C@H](CO)NC(=O)[C@@H](NC(=O)[C@@H](CCCNC(=N)N)NC(=O)[C@@H](CCCNC(=N)N)NC(=O)[C@@H](CCCNC(=N)N)NC(=O)[C@@H](CCCNC(=N)N)NC(=O)[C@@H](CCCNC(=N)N)NC(=O)[C@@H](CCCNC(=N)N)NC(=O)[C@H](N)CCCNC(=N)N)C(C)C)C(=O)N[C@H](CCCNC(=N)N)C(=O)N[C@H](CCCNC(=N)N)C(=O)O [Peptide G11.46, rrrrrrrVSrrFMrr] (H-[dR][dR][dR][dR][dR][dR][dR]VS[dR][dR]FM[dR][dR]-OH; N-terminus and C-terminus assumed)
pIC50 (Salmonella): 6.68
Salmonella MIC (Salmonella): 0.7 µM
activity against candida albicans SC5314 (candida albicans SC5314): active
% α-helix ([1]; Table 4): 0%
secondary structure ([1]; aqueous solution or TFE where stated): random coils in aqueous solution or in TFE
